In patent publication US20160090556A1, “PRODUCTS COMPRISING MALODOR REDUCTION MATERIALS” (The Procter & Gamble Company, priority 2014, published 2016):

Tests used:
[1] = Blocker Index (BI) assigned by perfumers/expert graders on isovaleric acid swatches; parameters: species or system human; key: BI odor strength 0 (lowest, clean swatch) to 3 (highest)
Source text: (§1) Blocker materials suitable for use in consumer products of the present invention are chosen for their ability to decrease malodor, while not interfering with perception of a fragrance. Material selection is done by assigning two indices to a test sample material from two reference scales in order to rank odor strengths. The two reference scales are the Fragrance Fidelity Index (FFI) scale and the Blocker Index (BI) scale. The FFI ranks the ability of the test sample material to impart a perceivable odor which could cause interference when combined with another fragrance and the BI ranks the ability of the test sample material to reduce malodor perception. The two methods for assigning the indices to a test sample on the FFI and the BI reference scales are given below.
(§2) The first step in the method for assigning a BI to a test sample material on the BI reference scale is to create the BI reference swatches. […] Fabric swatches for this test are white knit polycotton (4 inch×4 inch) swatches from EMC ordered as PC 50/50. The supplier is instructed to strip the swatches first, stripping involves washing twice with a fragrance-free detergent and rinsing three times.
The BI scale contains one clean swatch with no malodor applied. […] These solutions are pipetted to the middle of the swatches. […] After drying for 30 minutes in a vented hood, the swatches are wrapped in aluminum foil to prevent odor contamination to the treated swatch. A clean untreated swatch is also included as the lowest anchor point of reference for malodor strength on the BI scale. The BI reference scale swatches should be used within 0.5 to 12 hours and discarded after 12 hours. The swatches are used as scale anchor points when graders evaluate a test sample(s) and are assigned a Blocker Index (BI) as show in Table 12.
The perfumer/expert grader is asked to rank order swatches according to a scale between 0 and 3.
The reference swatches represent the 0, 1, 2, and 3 BIs on the BI reference scale, Table 12. The expert grader should familiarizes him/herself with the strength of the odor on the BI reference swatches by sniffing each one starting at 0 (the lowest odor strength) and ending at 3 (the highest odor strength). This should be done prior to evaluating the swatch treated with the test material.
To evaluate the BI, the test material is applied to a malodorous swatch to determine how well the test material blocks the malodor. […] After drying the malodorous swatch a known concentration of test material solution, between 1 ppm and 100 ppm is pipetted onto the malodorous swatch. […] It is sometimes necessary to evaluate several levels of the test material between about 1 and about 100 ppm to determine the BI.
At least two perfumers/expert graders are used to assign the BI to the test sample. […] The test sample swatch is assigned a BI at or between numbers on the BI in table.

[2] = Liquid dish neat product liquid-air partition coefficient; format: physicochemical
[3] = Fragrance Fidelity Index (FFI) assigned by perfumers/expert graders on fabric swatches; parameters: species or system human; key: FFI grade on reference scale anchored by 0, 1, 2, 3 swatches
Source text: as §1
as §2, with “assigning an FFI” for “assigning a BI”, “to the” for “to a”, “test samples” for “test sample material”, “the FFI” for “the BI”
Pipette 13 μL of each of the three solutions into the middle of a clean swatch resulting in about a 1 cm diameter of the solution in the middle of the swatch. This will create a sensory scale of three swatches with three different odor levels based on the concentration of the solution pipetted onto the swatch. After drying for 30 minutes in a vented hood, the swatches are wrapped in aluminum foil to prevent odor contamination to the treated swatch. A clean untreated swatch is also included as the lowest anchor point of reference for odor strength on the FFI scale. The FFI reference scale swatches should be used within 0.5 to 12 hours and discarded after 12 hours. The swatches are used as scale anchor points when graders evaluate a test sample(s) and are assigned a Fragrance Fidelity Index (FFI) as show in Table 7.
The perfumer/expert panel is asked to rank order swatches according to a scale between 0 and 3.
The reference swatches represent the 0, 1, 2, and 3 FFIs on the FFI reference scale, Table 9. The expert grader should familiarize them self with the strength of the odor on the FFI reference swatches by sniffing each one starting at 0 (the lowest odor strength) and ending at 3 (the highest odor strength). This should be done prior to evaluating the test sample material treated swatch.
A clean swatch is treated with 13 μL of a known concentration of a test sample material resulting in an about 1 cm of the solution on the clean swatch. Just like the reference swatches, the test sample material swatch is dried in a vented hood for 30 minutes and then wrapped in aluminum foil to prevent contamination. The test material swatches and the FFI reference swatches should be made within 2 hours of each other. The test material swatch must be used within 0.5 to 12 hours and discarded after 12 hours.
At least two perfumers/expert graders are used to assign an FFI grade to a test sample. The perfumer/expert grader smells the test sample swatch by holding that swatch 1 inch from their nose with their nose centered over the area where the test sample was pipetted on to the fabric and then assigns the test sample an FFI grade using the FFI reference scale anchor swatches as references. In cases where the test sample material is graded greater than 3, the test material is not a blocker material or the concentration of the material needs to be lowered and reevaluated to determine if a lower level has a malodor blocker functionality.

[4] = Conc 10 ppm test material on isovaleric acid swatch
[5] = Conc 50 ppm test material on isovaleric acid swatch
[6] = Conc 10 ppm test material on swatch
[7] = Conc 50 ppm test material on swatch

SMILES | BI [1, 4] | BI [1, 5] | Comment Code: Log of liquid dish neat product liquid-air partition coefficient ([2]; code letters K, L) | Comment Code: Log of liquid dish neat product liquid-air partition coefficient ([2]; codes K/L of the Comment Code, Table 1) | FFI [3, 6] | FFI [3, 7] | Log of liquid dish neat product liquid-air partition coefficient (Comment Code K/L) ([2]; class code letter within Comment Code)
CC1(C)C2CCC3(C2)C1C(=O)CCC3(C)C (stereo not drawn) [Material 1149] | 1.5 | 2.3 | K (Log of liquid dish neat product liquid-air partition coefficient greater than or equal to −7) | K (Log of liquid dish neat product liquid-air partition coefficient greater than or equal to −7) | 0 | 0.8 | 
CC(=O)OC1CC2CC1C1CC=CC21 (stereo not drawn) [Material 281] | 2.0 | 2.0 | K (Log of liquid dish neat product liquid-air partition coefficient greater than or equal to −7) |  | 0 | 0.5 | K (Log of liquid dish neat product liquid-air partition coefficient greater than or equal to −7)
